The star is where a group is joined. Myristoyl = CCCCCCCCCCCCCC(=O)*
Assays:
EGFR (ErbB1) = assay: Immunoblotting of cell lysates, EGFR phosphorylation; type: cell-based, human; settings: DLD-1 or Panc-1 cells; 24 hours; 25 μM and 10 μM; FIGS. 13A-B
Description: (§1) Lysate preparation and immunoblotting—Cells were seeded at cell densities of 1.5×10^5 (DLD-1), 1.8×10^5 (HCT-116) and 2.5×10^5 (SKBR3) cells/well, treated as indicated and grown for 24 hours. Following, cells were lysed in solubilization buffer; the lysates were cleared by centrifugation and a boiling gel sample buffer was added. Proteins were resolved by SDS-polyacrylamide gel electrophoresis through 10% polyacrylamide gels, and were electrophoretically transferred to nitrocellulose membranes. Membranes were blocked in TBST buffer containing 6% milk, and blotted with primary antibodies. Following, a secondary antibody linked to horseradish peroxidase was added. Immunoreactive bands were detected with the enhanced chemiluminescence reagent Immobilon Crescendo Western HRP substrate (WBLUR0100; Merck Millipore).

nucleolin [1] = target: T1, nucleolin (Homo sapiens, UniProt P19338); assay: Western blot analysis of dissected Panc-1 tumors, nucleolin; type: in vivo; parameters: endogenous in cells; host or cells: Panc-1; settings: Panc-1 tumor lysates; FIGS. 10A-C
Description: Pancreatic Tumor Growth in Nude Mice—The study was conducted according to the NIH Guidelines for Use and Care of Laboratory Animals and following the approval by Animal Care Committee of the Tel Aviv University. Nude CD1-Nu mice (25-30 g) housed in barrier facilities on a 12-h light/dark cycle one week prior to the injection of tumor cells (day zero). On day zero, 2×10^6 Panc 1 cells in 0.1 ml of PBS were implanted subcutaneously just above the right femoral joint. Tumor size was measured every 3-4 days. When the tumors were apparently seen and the calculated tumor size was 40 mm^3, the animals were divided randomly into two groups of mice (control vehicle treated and myr-NLS (SEQ ID NO: 5) treated; 8 mice per group). Treatment with the myr-NLS (SEQ ID NO: 5) was performed by intraperitoneal injection of 25 μg in 100 μl PBS (or 100 μl PBS for control mice) every day. Tumors size was measured 3 times a week. At the end of the experiment, the mice were sacrificed, and the tumors were dissected and used for further analysis.
Western blot analysis—Half of each tumor was homogenized in lysis buffer, using a Potter-Elvehjem manual homogenizer, cleared and kept at −70° C. […] Immunoreactive bands were detected with the enhanced chemiluminescence reagent (Luminata Crescendo Western HRP). Densitometric quantification analysis of the resulted images was done using ImageJ program. […]

[2] = tested on: H-Ras-transformed Rat-1 cells (EJ cells); type: cell-based; settings: FIG. 4C
Excerpt: Cell lines—Human breast cancer cell lines SKBR3 [Peles E et al. EMBO J. (1993) 12(3):961-71] and MCF7 [Faigenbloom L et al., Mol Syst Biol. (2015) 11(12):845] and human glioblastoma U87 [Goldberg L et al. Cancer Res. (2006) 66(24):11709-17] cell line, as well as Rat-1 fibroblast cells and H-Ras-transformed Rat-1 cells (EJ cells) [Marom M et al. J Biol Chem. (1995) 270(38):22263-70] and human Panc-1 and MIA PaCa-2 pancreatic cell lines (Rak R et al. Oncoscience. 2014 1(1):39-48; Weisz B et al. Oncogene (1999) 18, 2579±2588) were all grown in Dulbecco's modified Eagle's medium (DMEM; Biological Industries, Beithaemek, Israel). Human colorectal cancer cell lines DLD-1 (ATTC Cat No. CCL-221), HCT-116 (ATTC Cat No. CCL-247) and LNCaP prostate cancer cells were grown in Roswell Park Memorial Institute 1640 (RPMI 1640) medium and McCoy's 5A media, respectively (Sigma-Aldrich). All media were supplemented with antibiotics and 10% heat-inactivated fetal bovine serum (FBS; Gibco). Human breast cell line MCF10A [Bott A et al. Oncotarget. […]
Methylene blue viability assay—Cells were plated in 96-wells plates at cell densities of 1.5×10^3 (EJ, DLD-1), 3×10^3 (Rat-1, HCT-116, U87), 5×10^3 (SKBR3, MCF7) and 6×10^3 (MCF10A) cells/well. […] IC-50 values were calculated using a non-linear regression model (logarithmic inhibitor vs. normalized response-variable slope) with the GraphPad Prism 6 software.

nucleolin [3] = target: T1, nucleolin; assay: Immunoblotting of cell lysates, nucleolin level; type: cell-based; parameters: endogenous in cells; host or cells: DLD-1, Panc-1; settings: DLD-1 or Panc-1 cells; 24 hours; 25 μM and 10 μM; FIGS. 13A-B
Description: as §1

T1 sequence (P19338 whole entry): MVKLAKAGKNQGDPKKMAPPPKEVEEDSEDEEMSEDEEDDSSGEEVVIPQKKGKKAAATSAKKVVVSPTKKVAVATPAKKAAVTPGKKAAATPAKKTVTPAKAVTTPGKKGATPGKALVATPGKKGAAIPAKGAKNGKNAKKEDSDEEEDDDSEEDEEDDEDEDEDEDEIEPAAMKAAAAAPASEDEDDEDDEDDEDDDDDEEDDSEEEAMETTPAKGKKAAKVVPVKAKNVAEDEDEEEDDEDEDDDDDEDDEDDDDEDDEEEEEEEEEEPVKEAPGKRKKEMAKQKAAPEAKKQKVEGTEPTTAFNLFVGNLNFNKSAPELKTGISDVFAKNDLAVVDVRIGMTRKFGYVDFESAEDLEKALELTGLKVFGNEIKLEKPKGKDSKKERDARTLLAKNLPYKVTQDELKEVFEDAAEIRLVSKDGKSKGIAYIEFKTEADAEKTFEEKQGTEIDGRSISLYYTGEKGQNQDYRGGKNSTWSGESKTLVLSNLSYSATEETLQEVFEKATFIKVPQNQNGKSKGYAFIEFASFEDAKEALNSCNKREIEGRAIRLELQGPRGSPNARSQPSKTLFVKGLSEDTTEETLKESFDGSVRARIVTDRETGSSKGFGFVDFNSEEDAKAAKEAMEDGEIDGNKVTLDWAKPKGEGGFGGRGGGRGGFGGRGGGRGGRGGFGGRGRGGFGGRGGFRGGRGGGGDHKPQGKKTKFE

- nucleolin levels in tumors (nucleolin [1]): significant reduction
- levels of expression of nucleolin (nucleolin [3]): reduced the levels of expression
Substance: Myr-RRRHIVRKRTLRRLL-OH (Myristoyl-RRRHIVRKRTLRRLL-OH; SMILES CCCCCCCCCCCCCC(=O)N[C@@H](CCCNC(=N)N)C(=O)N[C@@H](CCCNC(=N)N)C(=O)N[C@@H](CCCNC(=N)N)C(=O)N[C@@H](Cc1c[nH]cn1)C(=O)N[C@H](C(=O)N[C@H](C(=O)N[C@@H](CCCNC(=N)N)C(=O)N[C@@H](CCCCN)C(=O)N[C@@H](CCCNC(=N)N)C(=O)N[C@H](C(=O)N[C@@H](CC(C)C)C(=O)N[C@@H](CCCNC(=N)N)C(=O)N[C@@H](CCCNC(=N)N)C(=O)N[C@@H](CC(C)C)C(=O)N[C@@H](CC(C)C)C(=O)O)[C@@H](C)O)C(C)C)[C@@H](C)CC) [myr-NLS]
- levels of phosphorylated EGFR (EGFR (ErbB1)): reduced
- viability of Rat-1 fibroblast cells transformed with constitutive Ras (EJ) [2]: decreased viability
